In patent US8268786B2, “Anti-cancer tocotrienol analogues and associated methods” (First Tech International Limited, priority 2009, dated 2012):
Read-outs that look alike come from different tables or passages of the source.

How the values were obtained:
[1] = tested on: ER-negative human breast cancer cells MDA-MB-231; assay: MTT antiproliferative assay, MDA-MB-231 cells; type: cell-based; details: for antiproliferative activity (in words): MDA-MB-231
Method: (§1) For each of the assays performed the compounds were dissolved in aqueous culture media by binding the compounds with bovine serum albumin (BSA).
(§2) An amount of each compound appropriate for the desired final compound concentration was placed in a 1.5 mL screw top glass vial and dissolved in 100 μL of 100% ethanol. Once dissolved, this ethanol/compound solution was added to a small volume of sterile 10% BSA in water and incubated overnight at 37° C. […] Ethanol was added to all treatment media such that the final ethanol concentration was the same in all treatment groups within a given experiment and was always less than 0.1%. Although the examples provided have been described in conjunction with specified amounts of ethanol and other compounds it should be understood that the invention is applicable to embodiments not having those limited concentration.
(§3) The cell growth of MCF7 (Example 24) and MDA-MB-231 (Example 25) cell lines was measured using the MTT assay procedures described above and an MTT assay kit (TACS™, Trevogen®, Inc., Gaithersburg, Md.). After passing the cells for 3-4 times, growing cells were incubated in a 96-well plate at a density of 8×10^3 cells per well, and allowed to attach for 24 hours. Complete growth medium was then replaced with 100 μL of RPMI serum free medium (GIBCO-Invitrogen, NY) containing various doses (20, 10, 5, 2 μM) of the tested compound and the culture continued at 37° C. under 5% CO2. After 96 hours, the incubated cells were treated with MTT solution (10 μL/well) at 37° C. for 4 hours. The color reaction was stopped by the addition of solubilization/stop solution (100 μL/well). The cells continued to be incubated at 37° C. to completely dissolve the formazan product. Absorbance of the samples was determined at 570 nm with an ELISA plate reader (BioTek, VT). Absorbance readings were converted to estimated cell numbers based on a standard curve prepared by plating various concentration of cells, as determined by hemocytometer, and measuring the absorbance of those cells at the start of each experiment. The IC50 value of each compound was calculated using nonlinear regression (curve fit) of log concentration versus the number of cells/well implemented using GraphPad Prism 5.0 program. The procedure was identical for both human breast cancer cell lines MCF7 and MDA-MB-231.

[2] = tested on: ER-positive human breast cancer cells MCF7; assay: MTT antiproliferative assay, MCF7 cells; type: cell-based; details: for potency relative to parent natural tocotrienol / antiproliferative activity (in words): MCF7; for potency relative to parent natural tocotrienol: 4 and 10 versus Compound 1, 8 versus Compound 2
Method: as §1, §2, §3

[3] = tested on: highly metastatic breast cancer cell line MDA-MB-231; assay: BME Cell Invasion Assay (Boyden chamber, calcein-AM); type: cell-based, human; details: for anti-invasive activity (in words): MDA-MB-231, 5 μM
Method: Anti-Invasion Assays were performed to measure the anti-invasive properties of Compounds 1-21 using a 96 well basement membrane extract “BME” Cell Invasion Assay (Cultrex®, Trevogen, Catalog# 3455-096-K) with the highly metastatic breast cancer cell line MDA-MB-231. This assay employs a simplified Boyden Chamber design with a polyethylene terephthalate membrane (8 μm). Detection of cell invasion is quantified using calcein-AM. Cells internalize calcein-AM and intracellular esterases cleave the acetomethylester moiety to generate free calcein. Free calcein fluoresces brightly, and this fluorescence may be used to quantify the number of cells that have invaded across BME. (See Tamilarasan and Borghesani, referenced above)
About […] of basement membrane extract (BME, 1×) coat was added per well. After overnight incubation at 37° C. in a 5% CO2 incubator, 50,000/50 μL of MDA-MB-231 cells in serum free RPMI medium were added to the top chamber of each well, which contained the tested compound at a treatment concentration of 5 μM. About 150 μL of RPMI medium was added to the lower chamber, which contained 10% fetal bovine serum, penicillin/streptomycin, and fibronectin (1 μL/mL) and N-formyl-met-leu-phe (10 nM) as chemoattractants. Cells were allowed to migrate to the lower chamber at 37° C. in a CO2 incubator. After 24 h, the top and bottom chambers were aspirated and washed with a washing buffer solution. About 100 μL of cell dissociation solution/Calcein-AM solution was added to the bottom chamber and incubated for 1 hour at 37° C. in a CO2 incubator. The cells internalized calcein-AM, and the intracellular esterases cleaved the acetomethylester (AM) moiety to generate free calcein. Fluorescence of the samples was determined at 485 nm excitation; 520 nm emissions were measured using a plate reader (BioTek, VT). The numbers of cells that invaded through the BME coat were calculated using a standard curve.
Differences among the various treatment groups were determined by analysis of variance (ANOVA) followed by Dunnett's t-test. Differences were considered to be statistically significant at a value of <0.05, as compared to vehicle treated controls.

[4] = 96 hours, serum free medium, calculated by nonlinear regression, read-out: MDA-MB-231 IC50
[5] = 96 hours, serum free medium, calculated by nonlinear regression, read-out: MCF7 IC50
[6] = Homo sapiens, MDA-MB-231, 96 h, read-out: MDA-MB-231 IC50 μM
[7] = Homo sapiens, MCF7, 96 h, read-out: MCF7 IC50 μM

IC50 [1, 4] [µM]	IC50 [2, 5] [µM]	SMILES	IC50 [1, 6] [µM]	IC50 [2, 7] [µM]	other results
> 10	> 20	CC(C)=CCC/C(C)=C/CC/C(C)=C/CC[C@]1(C)CCc2c(C)c(O)c(C)c(C)c2O1 [Compound 1, α-tocotrienol, reference compound]	–	–	–
> 10	4.5	CC(C)=CCC/C(C)=C/CC/C(C)=C/CCC1(C)CCc2c(C)c(OC(=O)NS(=O)(=O)c3ccccc3)c(C)c(C)c2O1 (centres unmarked) [Compound 4, 2,5,7,8-tetramethyl-2-((3E,7E)-4,8,12-trimethyltrideca-3,7,11-trienyl)chroman-6-ylphenylsulfonylcarbamate]	–	–	potency relative to parent natural tocotrienol [2]: 8 fold
> 10	> 10	CC(C)=CCC/C(C)=C/CC/C(C)=C/CCC1(C)CCc2cc(OC(=O)NS(=O)(=O)c3ccccc3)c(C)c(C)c2O1 (centres unmarked) [Compound 5, 2,7,8-trimethyl-2-((3E,7E)-4,8,12-trimethyltrideca-3,7,11-trienyl)chroman-6-ylphenylsulfonylcarbamate]	–	–	–
> 10	6.1	CC(C)=CCC/C(C)=C/CC/C(C)=C/CCC1(C)CCc2cc(OC(=O)NS(=O)(=O)c3ccccc3)cc(C)c2O1 (centres unmarked) [Compound 6, 2,8-dimethyl-2-((3E,7E)-4,8,12-trimethyltrideca-3,7,11-trienyl)chroman-6-ylphenylsulfonylcarbamate]	–	–	antiproliferative activity (in words) [2]: activities greater than the natural tocotrienols from which they were derived
–	–	CC(C)=CCC/C(C)=C/CC/C(C)=C/CC[C@]1(C)CCc2c(C)c(OC(=O)NS(=O)(=O)c3ccc(C)cc3)c(C)c(C)c2O1 [Compound 7, (R)-2,5,7,8-tetramethyl-2-((3E,7E)-4,8,12-trimethyltrideca-3,7,11-trienyl)chroman-6-yl tosylcarbamate]	> 10	6.1	antiproliferative activity (in words) [2]: activities greater than the natural tocotrienols from which they were derived
–	–	CC(C)=CCC/C(C)=C/CC/C(C)=C/CC[C@]1(C)CCc2c(C)c(OC(=O)NS(=O)(=O)c3ccc(Cl)cc3)c(C)c(C)c2O1 [Compound 10, (R)-2,5,7,8-tetramethyl-2-((3E,7E)-4,8,12-trimethyltrideca-3,7,11-trienyl)chroman-6-yl 4-chlorophenylsulfonylcarbamate]	> 10	2.4	potency relative to parent natural tocotrienol [2]: 8 fold
–	–	CC(C)=CCC/C(C)=C/CC/C(C)=C/CC[C@]1(C)CCc2cc(OC(=O)NS(=O)(=O)c3ccc(Cl)cc3)c(C)c(C)c2O1 [Compound 11, (R)-2,7,8-trimethyl-2-((3E,7E)-4,8,12-trimethyltrideca-3,7,11-trienyl)chroman-6-yl 4-chlorophenylsulfonylcarbamate]	> 10	> 10	–
–	–	CC(C)=CCC/C(C)=C/CC/C(C)=C/CC[C@]1(C)CCc2cc(OC(=O)NS(=O)(=O)c3ccc(Cl)cc3)cc(C)c2O1 [Compound 12, (R)-2,8-dimethyl-2-((3E,7E)-4,8,12-trimethyltrideca-3,7,11-trienyl)chroman-6-yl 4-chlorophenylsulfonylcarbamate]	> 10	> 10	–
–	–	CC(C)=CCC/C(C)=C/CC/C(C)=C/CC[C@]1(C)CCc2c(C)c(OC(=O)Nc3ccccc3)c(C)c(C)c2O1 [Compound 13, (R)-2,5,7,8-tetramethyl-2-((3E,7E)-4,8,12-trimethyltrideca-3,7,11-trienyl)chroman-6-yl phenylcarbamate]	> 10	> 20	antiproliferative activity (in words) [1]: improved activities; anti-invasive activity (in words) [3]: more active than their natural tocotrienol parent compounds
–	–	CC(C)=CCC/C(C)=C/CC/C(C)=C/CC[C@]1(C)CCc2cc(OC(=O)Nc3ccccc3)c(C)c(C)c2O1 [Compound 14, (R)-2,7,8-trimethyl-2-((3E,7E)-4,8,12-trimethyltrideca-3,7,11-trienyl)chroman-6-yl phenylcarbamate]	> 10	> 10	–
–	–	CC(C)=CCC/C(C)=C/CC/C(C)=C/CC[C@]1(C)CCc2cc(OC(=O)Nc3ccccc3)cc(C)c2O1 [Compound 15, (R)-2,8-dimethyl-2-((3E,7E)-4,8,12-trimethyltrideca-3,7,11-trienyl)chroman-6-yl phenylcarbamate]	> 10	> 10	–
–	–	CC(C)=CCC/C(C)=C/CC/C(C)=C/CC[C@]1(C)CCc2c(C)c(OC(=O)NCc3ccccc3)c(C)c(C)c2O1 [Compound 16, (R)-2,5,7,8-tetramethyl-2-((3E,7E)-4,8,12-trimethyltrideca-3,7,11-trienyl)chroman-6-yl benzylcarbamate]	7.2	> 20	antiproliferative activity (in words) [1]: improved activities; MDA-MB-231 cells invasion ([3]; 5 μM, 24 h): 8%; anti-invasive activity (in words) [3]: more active than their natural tocotrienol parent compounds
–	–	CC(C)=CCC/C(C)=C/CC/C(C)=C/CC[C@]1(C)CCc2cc(OC(=O)NCc3ccccc3)c(C)c(C)c2O1 [Compound 17, (R)-2,7,8-trimethyl-2-((3E,7E)-4,8,12-trimethyltrideca-3,7,11-trienyl)chroman-6-yl benzylcarbamate]	> 10	> 10	antiproliferative activity (in words) [1]: improved activities; anti-invasive activity (in words) [3]: more active than their natural tocotrienol parent compounds
–	–	CC(C)=CCC/C(C)=C/CC/C(C)=C/CC[C@]1(C)CCc2cc(OC(=O)NCc3ccccc3)cc(C)c2O1 [Compound 18, (R)-2,8-dimethyl-2-((3E,7E) 4,8,12-trimethyltrideca-3,7,11-trienyl)chroman-6-yl benzylcarbamate]	> 10	> 10	–
–	–	CC(C)=CCC/C(C)=C/CC/C(C)=C/CC[C@]1(C)CCc2c(C)c(OC(=O)NC(=O)c3ccccc3)c(C)c(C)c2O1 [Compound 19, (R)-2,5,7,8-tetramethyl-2-((3E,7E)-4,8,12-trimethyltrideca-3,7,11-trienyl)chroman-6-yl benzoylcarbamate]	> 10	> 20	–
–	–	CC(C)=CCC/C(C)=C/CC/C(C)=C/CC[C@]1(C)CCc2cc(OC(=O)NC(=O)c3ccccc3)c(C)c(C)c2O1 [Compound 20, (R)-2,7,8-trimethyl-2-((3E,7E)-4,8,12-trimethyltrideca-3,7,11-trienyl)chroman-6-yl benzoylcarbamate]	–	> 10	–
–	–	CC(C)=CCC/C(C)=C/CC/C(C)=C/CC[C@]1(C)CCc2cc(OC(=O)NC(=O)c3ccccc3)cc(C)c2O1 [Compound 21, (R)-2,8-dimethyl-2-((3E,7E)-4,8,12-trimethyltrideca-3,7,11-trienyl)chroman-6-yl benzoylcarbamate]	–	5.6	–

SMILES	IC50 [1, 4] [µM]	IC50 [2, 5] [µM]	IC50 [1, 6] [µM]	IC50 [2, 7] [µM]	other results
CC(C)=CCC/C(C)=C/CC/C(C)=C/CC[C@]1(C)CCc2cc(O)c(C)c(C)c2O1 [Compound 2, γ-tocotrienol, reference compound]	> 10	11.4	–	–	–
CC(C)=CCC/C(C)=C/CC/C(C)=C/CC[C@]1(C)CCc2cc(O)cc(C)c2O1 [Compound 3, δ-tocotrienol, reference compound]	> 10	15.5	–	–	–
